Data taken from patent US9145354B2, “Pharmaceutical compounds” (priority 2011, dated 2015).
Where two headings read alike, the source gives them in different places.

Target: full length NS3/4a (Hepatitis C virus genotype 1b (isolate BK) (HCV), UniProt P26663)
Experiment: NS3 Protease Assay (Example A), FRET-based
Assay type: biochemical
In short: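 Full-length NS3/4a, made in-house, with an NS4A/B-derived peptide substrate carrying QXL520 quencher and 5-FAMsp fluorophore. Buffer 50 mM Tris pH8, 20 mM DTT, 1% CHAPS, 10% glycerol, 5% DMSO. Fluorescence followed 30 min at room temperature; IC50 from initial rates of replicate curves.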

[1] = HCV NS3 protease assay, full length NS3/4a, read-out: Assay A IC50 (μM) average
[2] = read-out: IC50 against the protease activity of the full length NS3/4a
[3] = stated as IC50 less than 30 μM or at least 40% inhibition at a concentration of 100 μM, read-out: IC50 against the protease activity of the full length NS3/4a

full length NS3/4a, sequence (P26663 1027-1657): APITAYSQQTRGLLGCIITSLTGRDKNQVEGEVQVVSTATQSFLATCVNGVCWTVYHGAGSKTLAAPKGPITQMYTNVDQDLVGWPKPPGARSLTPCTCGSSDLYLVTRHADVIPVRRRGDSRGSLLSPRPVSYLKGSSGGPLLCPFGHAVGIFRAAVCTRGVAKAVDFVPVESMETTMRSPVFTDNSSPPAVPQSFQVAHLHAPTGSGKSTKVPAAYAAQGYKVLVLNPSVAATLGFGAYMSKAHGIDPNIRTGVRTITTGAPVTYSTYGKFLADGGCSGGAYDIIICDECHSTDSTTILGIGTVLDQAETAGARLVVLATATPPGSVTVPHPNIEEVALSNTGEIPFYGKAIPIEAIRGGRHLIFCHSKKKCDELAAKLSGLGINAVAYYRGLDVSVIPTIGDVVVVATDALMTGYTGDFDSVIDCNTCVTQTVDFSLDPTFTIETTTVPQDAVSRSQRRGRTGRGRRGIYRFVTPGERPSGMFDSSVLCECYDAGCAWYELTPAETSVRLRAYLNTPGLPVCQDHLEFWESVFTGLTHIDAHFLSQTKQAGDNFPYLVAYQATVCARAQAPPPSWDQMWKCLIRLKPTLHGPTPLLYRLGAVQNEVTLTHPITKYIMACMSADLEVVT

| SMILES | IC50 [1] | IC50 [2] | also measured |
| --- | --- | --- | --- |
| CC[C@@H](N[C@@H](C)CC(N)=O)c1ccc(Cl)c(C(=O)c2cnc(NC)cn2)c1F [Example 192, (3S)-3-{[(1R)-1-(4-chloro-2-fluoro-3-{[5-(methylamino)-pyrazin-2-yl]carbonyl}-phenyl)propyl]-amino}butanamide] | 0.63 µM | < 1 µM | – |
| C[C@@H](CC(N)=O)N[C@@H](c1ccc(Cl)c(C(=O)c2cnc(N)cn2)c1F)C1CC1 [Example 194, (3S)-3-{[(R)-{3-[(5-aminopyrazin-2-yl)carbonyl]-4-chloro-2-fluorophenyl}(cyclo-propyl)methyl]amino}-butanamide] | – | – | inhibition at 0.3 µM (@ 0.3 uM): 28% |
| C[C@H](CC(N)=O)N[C@@H](c1ccc(Cl)c(C(=O)c2cnc(N)cn2)c1F)C1CC1 [Example 195, (3R)-3-{[(R)-{3-[(5-aminopyrazin-2-yl)carbonyl]-4-chloro-2-fluorophenyl}(cyclo-propyl)methyl]amino}-butanamide] | 6.2 µM | – | IC50 [3]: < 30 µM |
| COc1ccc([C@H](N)C2CC2)c(F)c1C(=O)c1ccc(F)cc1 [Example 196, (R)-cyclopropyl({2-fluoro-3-[(4-fluorophenyl)carbonyl]-4-methoxyphenyl})methanamine] | 2.3 µM | 1 to 5 µM | – |
| CC[C@@H](N)c1ccc(Cl)c(C(=O)c2ccc(N)nn2)c1F [Example 197, 6-({3-[(1R)-1-Aminopropyl]-6-chloro-2-fluorophenyl}carbonyl)pyridazin-3-amine] | – | – | inhibition at 10 µM: 45%; IC50 [3]: < 30 µM |
| CC[C@@H](N)c1ccc(OC)c(C(=O)c2cccc(F)c2)c1F [Example 198, (1R)-1-{2-fluoro-3-[(3-fluorophenyl)carbonyl]-4-methoxyphenyl}propan-1-amine] | 2.4 µM | 1 to 5 µM | – |
| CC[C@@H](N[C@H](C)CC(N)=O)c1ccc(OC)c(C(=O)c2ccc(F)cc2)c1F [Example 199, (3R)-3-{[(1R)-1-{2-fluoro-3-[(4-fluorophenyl)carbonyl]-4-methoxyphenyl}propyl]amino}butanamide] | – | – | inhibition at 100 µM (@ 100 uM): 32% |
| CC[C@@H](N[C@@H](C)CC(N)=O)c1ccc(OC)c(C(=O)c2ccc(F)cc2)c1F [Example 200, (3S)-3-{[(1R)-1-{2-fluoro-3-[(4-fluorophenyl)carbonyl]-4-methoxyphenyl}propyl]amino} butanamide] | 0.078 µM | < 1 µM | – |
| COc1ccc([C@H](N)C2CC2)c(F)c1C(=O)c1cccc(F)c1 [Example 201, (R)-cyclopropyl({2-fluoro-3-[(3-fluorophenyl)carbonyl]-4-methoxyphenyl})methanamine] | 3 µM | 1 to 5 µM | – |
| C[C@H](CC(N)=O)N[C@@H](c1ccc(Cl)c(C(=O)c2ccc(N)c(Cl)c2)c1F)C1CC1 [Example 202, (3R)-3-{[(R)-{3-[(4-amino-3-chlorophenyl)carbonyl]-4-chloro-2-fluorophenyl}(cyclopropyl)methyl]amino}butanamide] | 0.31 µM | – | – |
| Cc1cc(C(=O)c2c(Cl)ccc([C@H](N[C@H](C)CC(N)=O)C3CC3)c2F)ccc1N [Example 203, (3R)-3-{[(R)-{3-[(4-amino-3-methylphenyl)carbonyl]-4-chloro-2-fluorophenyl}(cyclopropyl)methyl]amino}butanamide] | 0.27 µM | – | – |
| CC[C@@H](N)c1ccc(Cl)c(C(=O)c2cccc(O)c2)c1F [Example 204, 3-({3-[(1R)-1-aminopropyl]-6-chloro-2-fluorophenyl}-carbonyl)phenol] | 0.17 µM | – | – |
| CC[C@@H](N[C@@H](C)CC(N)=O)c1ccc(Cl)c(C(=O)c2ccnc(N)c2)c1F [Example 205, (3S)-3-{[(1R)-1-{3-[(2-aminopyridin-4-yl)carbonyl]-4-chloro-2-fluorophenyl}propyl]amino} butanamide] | 0.19 µM | – | – |
| CC[C@@H](N[C@H](C)CC(N)=O)c1ccc(Cl)c(C(=O)c2ccnc(N)c2)c1F [Example 206, (3R)-3-{[(1R)-1-{3-[(2-aminopyridin-4-yl)carbonyl]-4-chloro-2-fluorophenyl}propyl]amino}butanamide] | 1.2 µM | 1 to 5 µM | – |
| CC[C@@H](N[C@@H](C)CC(N)=O)c1ccc(Cl)c(C(=O)c2ccc(NC)nc2)c1F [Example 207, (3S)-3-{[(1R)-1-(4-chloro-2-fluoro-3-{[6-(methylamino)pyridin-3-yl]carbonyl}phenyl)propyl]amino}butanamide] | 0.37 µM | < 1 µM | – |
| CC[C@@H](N[C@H](C)CC(N)=O)c1ccc(Cl)c(C(=O)c2ccc(NC)nc2)c1F [Example 208, (3R)-3-{[(1R)-1-(4-chloro-2-fluoro-3-{[6-(methylamino)pyridin-3-yl]carbonyl}phenyl)propyl]amino}butanamide] | 3.1 µM | 1 to 5 µM | – |

| SMILES | IC50 [1] | IC50 [2] | also measured |
| --- | --- | --- | --- |
| COc1ccc([C@H](N[C@H](C)CC(N)=O)C2CC2)c(F)c1C(=O)c1ccc(F)cc1 [Example 209, (3R)-3-{[(R)-cyclopropyl({2-fluoro-3-[(4-fluorophenyl)carbonyl]-4-methoxyphenyl})methyl]amino}butanamide] | 2.7 µM | 1 to 5 µM | – |
| COc1ccc([C@H](N[C@@H](C)CC(N)=O)C2CC2)c(F)c1C(=O)c1ccc(F)cc1 [Example 210, (3S)-3-{[(R)-cyclopropyl({2-fluoro-3-[(4-fluorophenyl)carbonyl]-4-methoxyphenyl})methyl]amino} butanamide] | 0.098 µM | < 1 µM | – |
| CC[C@@H](N[C@H](C)CC(N)=O)c1ccc(OC)c(C(=O)c2cccc(F)c2)c1F [Example 211, (3R)-3-{[(1R)-1-{2-fluoro-3-[(3-fluorophenyl)carbonyl]-4-methoxyphenyl}propyl]amino}butanamide] | – | 1 to 5 µM | inhibition at 1 µM: 47% |
| CC[C@@H](N[C@@H](C)CC(N)=O)c1ccc(OC)c(C(=O)c2cccc(F)c2)c1F [Example 212, (3S)-3-{[(1R)-1-{2-fluoro-3-[(3-fluorophenyl)carbonyl]-4-methoxyphenyl}propyl]amino}butanamide] | 0.094 µM | – | – |
| CC[C@@H](N[C@@H](C)CC(N)=O)c1ccc(Cl)c(C(=O)c2ccc(N)c(C#N)c2)c1F [Example 213, (3S)-3-{[(1R)-1-{3-[(4-amino-3-cyanophenyl)carbonyl]-4-chloro-2-fluorophenyl}propyl]amino} butanamide] | 0.35 µM | – | – |
| CC[C@@H](N)c1ccc(Cl)c(C(=O)c2ccc(Cl)nn2)c1F [Example 214, (1R)-1-{4-chloro-3-[(6-chloropyridazin-3-yl)carbonyl]-2-fluorophenyl}propan-1-amine] | – | – | inhibition at 10 µM: 51%; IC50 [3]: < 30 µM |
| CC[C@@H](N[C@@H](C)CC(N)=O)c1ccc(Cl)c(C(=O)c2ccc(OC)c(C#N)c2)c1F [Example 215, (3S)-3-{[(1R)-1-{4-chloro-3-[(3-cyano-4-methoxyphenyl)carbonyl]-2-fluorophenyl}propyl]amino} butanamide] | 1.2 µM | 1 to 5 µM | – |
| CC[C@@H](N[C@H](C)CC(N)=O)c1ccc(Cl)c(C(=O)c2ccc(N)c(C#N)c2)c1F [Example 216, (3R)-3-{[(1R)-1-{3-[(4-amino-3-cyanophenyl)carbonyl]-4-chloro-2-fluorophenyl}propyl]amino} butanamide] | 0.48 µM | < 1 µM | – |
| CC[C@@H](N[C@H](C)CC(N)=O)c1ccc(Cl)c(C(=O)c2ccc(OC)c(C#N)c2)c1F [Example 217, (3R)-3-{[(1R)-1-{4-chloro-3-[(3-cyano-4-methoxyphenyl)carbonyl]-2-fluorophenyl}propyl]amino}butanamide] | – | – | inhibition at 30 µM (@ 30 uM): 38% |
| CC[C@@H](N[C@@H](CC(N)=O)C(C)C)c1ccc(Cl)c(C(=O)c2ccc(N)nc2)c1F [Example 218, (3S)-3-{[(1R)-1-{3-[(6-aminopyridin-3-yl)carbonyl]-4-chloro-2-fluorophenyl}propyl]amino}-4-methylpentanamide] | – | 1 to 5 µM | inhibition at 1 µM: 42% |
| CC[C@@H](N[C@H](CC(N)=O)C(C)C)c1ccc(Cl)c(C(=O)c2ccc(N)nc2)c1F [Example 219, (3R)-3-{[(1R)-1-{3-[(6-aminopyridin-3-yl)carbonyI]-4-chloro-2-fluorophenyl}propyl]amino}-4-methylpentanamide] | 7.5 µM | – | IC50 [3]: < 30 µM |
| [2H]C([2H])([2H])C([2H])([2H])[C@@H](N[C@H](C)CC(N)=O)c1ccc(Cl)c(C(=O)c2ccc(N)c(Cl)c2)c1F [Example 220, (3R)-3-{[(1R)-1-{3-[(4-amino-3-chlorophenyl)carbonyl]-4-chloro-2-fluorophenyl}(2,2,3,3,3-deutero)propyl]amino} butanamide] | 0.26 µM | – | – |
| [2H]C([2H])([2H])C([2H])([2H])[C@@H](N[C@H](C)CC(N)=O)c1ccc(Cl)c(C(=O)c2ccc(N)c(C)c2)c1F [Example 221, (3R)-3-{[(1R)-1-{3-[(4-amino-3-methylphenyl)carbonyl]-4-chloro-2-fluorophenyl}(2,2,3,3,3-deutero)propyl]amino} butanamide] | 0.36 µM | – | – |
| CC[C@@H](N)c1ccc(Cl)c(C(=O)c2ccc(C#N)c(OC)c2)c1F [Example 222, 4-({3-[(1R)-1-aminopropyl]-6-chloro-2-fluorophenyl}carbonyl)-2-methoxybenzonitrile] | – | – | inhibition at 0.03 µM (@ 0.03 uM): 45%; IC50 [3]: < 30 µM |
| COc1ccc([C@H](N[C@H](C)CC(N)=O)C2CC2)c(F)c1C(=O)c1cccc(F)c1 [Example 223, (3R)-3-{[(R)-cyclopropyl({2-fluoro-3-[(3-fluorophenyl)carbonyl]-4-methoxyphenyl})methyl]amino}butanamide] | 3.1 µM | 1 to 5 µM | – |
| CC[C@H](CC(N)=O)N[C@H](CC)c1ccc(Cl)c(C(=O)c2ccc(N)nc2)c1F [Example 226, (3R)-3-{[(1R)-1-{3-[(6-aminopyridin-3-yl)carbonyl]-4-chloro-2-fluorophenyl}propyl]amino}pentanamide] | 1.1 µM | 1 to 5 µM | – |
